In patent US7084158B2, “Substituted propargylamines” (Bayer Cropscience S.A., priority 2001, dated 2006):

Tests used:
Format in all cases: in vivo
Set-up in all cases: key: compounds were considered to be active when, at a concentration of 500 ppm or less, they had an activity on the harmful organisms of 50% or more
[1] = system: Aphis fabae; assay: Example R: field bean, root-systemic activity on black bean aphids; conditions: 500 ppm or less; solution pipetted into bottle; after 3 and 6 days
Experimental: Germinated field bean seeds (Vicia faba) with radicles were transferred into brown glass bottles filled with tap water. Four milliliters of an aqueous solution of the formulated compound to be examined were pipetted into the brown glass bottle. The field bean was then heavily populated with approximately 100 black bean aphids (Aphis fabae). Plant and animals were then stored in a climatized chamber (16 hours of light/day, 25° C., 40–60% relative atmospheric humidity). After 3 and 6 days of storage, the root-systemic activity of the compound on the aphids was determined (mortality). The following examples were active: 184, 186, 305, 220, 265.

[2] = system: Spodoptera exigua; assay: Example S: treated L2 larvae and insect diet, sugar beet army worm mortality; conditions: 500 ppm or less, after 6 days
Experimental: A Petri dish whose bottom was covered with filter paper and which contains about 5 ml of insect diet is prepared. Five L2 larvae of sugar beet army worm (Spodoptera exigua) were counted into a small beaker. 200 μl of an aqueous solution of the formulated compound to be examined were pipetted into the beaker. The treated larvae were then poured into the Petri dish and a further 200 μl of the aqueous solution were distributed over the insect diet. The Petri dish was closed and then stored at 25° C. in a climatized chamber. After 6 days of storage, the mortality among the larvae was determined. The following examples were active: 1036, 175, 184, 1051, 1054, 1055, 234, 1057, 1059, 1060, 1063, 243, 245, 251, 257, 259, 266, 1065, 1067, 290, 291.

[3] = system: Aedes aegypti; assay: Example AG: microtiter plate, yellow fever mosquito larvicidal activity; conditions: 500 ppm or less, after 3 days
[4] = system: Rhipicephalus sanguineus; assay: Example AF: treated filter paper, tick larvae mortality; conditions: 500 ppm or less, after 24 hours
Experimental: The formulated compound was pipetted onto filter paper. After the solvent had evaporated, 20–30 tick larvae (Rhipicephalus sanguineus) were placed onto the filter paper. After 24 hours at about 25° C., the effect of the compound on the ticks was determined (mortality). The following examples were active: 197, 1057.

[5] = system: Heliothis virescens; assay: Example B: tobacco budworm eggs on filter paper/insect diet, mortality; conditions: 500 ppm or less; 24-hour-old eggs dipped, diet treated; after 6 days
[6] = system: Diabrotica undecimpunctata; assay: Example C: corn rootworm eggs with maize corn, mortality; conditions: 500 ppm or less; 4-5-day-old eggs; after 6 days
[7] = system: Ctenocephalides felis; assay: Example M: cat fleas fed with treated cattle blood, mortality; conditions: 500 ppm or less; adult fleas fed blood-preparation mixture; after 48 hours
Experimental: The formulated compound was mixed with defibrinated cattle blood. 10 adult cat fleas (Ctenocephalides felis) were fed with this blood-preparation mixture. After 48 hours at about 38° C., the effect of the compound on the fleas was determined (mortality). The compounds of the following examples were active: 70, 1002, 1004, 1005, 1036, 60, 197, 1057.

[8] = system: Carpocapsa pomonella; assay: Example D: dipped apples, codling moth L1 larvae mortality; conditions: 500 ppm or less, after 14 days
Experimental: Apples were dipped into an aqueous solution of the formulated compound to be examined. The apples were then populated with 10 L1 larvae of the codling moth (Carpocapsa pomonella). After 14 days of storage at about 25° C., the effect of the compound on the larvae was determined (mortality). The compounds of the following examples were active: Nos. 14, 15, 17, 18, 70, 1007, 1008, 1009, 1036, 1038, 197.

[9] = system: Leptinotarsa decemlineata; assay: Example L: potato leaves and larvae sprayed, Colorado beetle mortality; conditions: 500 ppm or less, after 4 days
Experimental: Potato leaves were populated with larvae of the Colorado beetle (Leptinotarsa decemlineata). Leaves and larvae were then sprayed with an aqueous solution of the formulated compound to be examined. After 4 days of storage at about 25° C., the effect of the compound on the larvae was determined (mortality). The compounds of the following examples were active: 60, 70, 1002, 1004, 1005, 1036, 1047, 197.

[10] = system: Heliothis virescens; assay: Example AB: cotton leaves with larvae sprayed, tobacco budworm mortality; conditions: 500 ppm or less; cotton leaves with L2 larvae sprayed; after 4 days
Experimental: Cotton leaves were placed into a Petri dish, populated with 5 L2 larvae of the American tobacco budworm (Heliothis virescens) and sprayed with an aqueous solution of the formulated compound to be examined. After 4 days of storage at about 25° C., the mortality among the larvae was determined. The following examples were active: 70, 1047, 197.

[11] = system: Trialeurodes vaporariorum; assay: Example AD: bush beans sprayed, white fly larvicidal action; conditions: 500 ppm or less; bush beans sprayed after hatching; after 11 days
Experimental: For oviposition, bush beans (Phaseolus vulgaris) were populated for 48 hours with adults of the white fly (Trialeurodes vaporariorum). After the larvae had hatched, the plants were sprayed to run-off point with an aqueous solution of the formulated compound to be examined. After 11 days, the larvicidal action was determined. The following examples were active: 1036, 70, 60, 1040, 197.

[12] = system: Nilaparvata lugens; assay: Example A: rice leaf dip, leafhopper larvae mortality; conditions: 500 ppm or less; L3 larvae on dipped rice plants; after 6 days
Experimental: The leaves of 12 rice plants having a stem length of 8 cm were dipped for 5 seconds into an aqueous solution of the formulated compound to be examined. After the solution had run off, the rice plants treated in this manner were placed into a Petri dish and populated with about 20 larvae (L3 stage) of the rice leafhopper species Nilaparvata lugens. The Petri dish was closed and then stored in a climatized chamber (16 hours of light/day, 25° C., 40–60% relative atmospheric humidity). After 6 days of storage, the mortality among the leafhopper larvae was determined. The compounds of the following examples were active: Nos. 29, 32, 42, 43, 51, 70, 84, 1002, 1004, 1005, 1040, 180, 184, 193, 197, 203, 209, 1059, 264, 265, 1066.

[13] = system: Plutella maculipennis; assay: Example K: sprayed white cabbage leaf, diamondback moth larvae mortality; conditions: 500 ppm or less, after 3 days
Experimental: A white cabbage leaf was sprayed with an aqueous solution of the formulated compound to be examined. After the spray coating had dried, the treated leaf was populated with larvae of the diamondback moth (Plutella maculipennis). After 3 days of storage at about 23° C., the effect of the compound on the larvae was determined (mortality). The compounds of the following examples were active: 60, 70, 1002, 1004, 1005, 1036, 197.

[14] = system: Spodoptera exigua; assay: Example Y: cotton plants sprayed, cut leaves, sugar beet armyworm mortality; conditions: 500 ppm or less, leaves cut after drying, L2 larvae, after 4 days
Experimental: Cotton plants were sprayed with an aqueous solution of the formulated compound to be examined. After drying, leaves were cut off, placed into a Petri dish and populated with 5 L2 larvae of the sugar beet armyworm (Spodoptera exigua). After 4 days of storage at about 23° C., the mortality among the larvae was determined. The following examples were active: 1036, 70, 60, 1047, 197.

[15] = system: Carpocapsa pomonella; assay: Example AA: insect diet mixed with compound, codling moth L1 larvae mortality; conditions: 500 ppm or less, compound mixed into insect diet, after 14 days
Experimental: Insect diet was mixed with an aqueous solution of the formulated compound to be examined and populated with 10 L1 larvae of the codling moth (Carpocapsa pomonella). After 14 days of storage at about 23° C., the mortality among the larvae was determined. The following examples were active: 70, 197.

[16] = system: Spodoptera exigua; assay: Example Z: cotton leaves with larvae sprayed, sugar beet armyworm mortality; conditions: 500 ppm or less; cotton leaves populated then sprayed; L2 larvae; after 4 days
Experimental: Cotton leaves were populated with 5 L2 larvae of the sugar beet armyworm (Spodoptera exigua) and then sprayed with an aqueous solution of the formulated compound to be examined. After 4 days of storage at about 23° C., the mortality among the larvae was determined. The following examples were active: 1036, 70, 60, 1047, 197.

[17] = system: Diabrotica undecimpunctata; assay: Example AC: treated soil, southern corn rootworm eggs mortality; conditions: 500 ppm or less, eggs added after 0d, 21d and 42d, after 2 weeks
Experimental: An aqueous solution of the formulated compound to be examined was mixed with soil. After 0d, 21d and 42d, eggs of the southern corn rootworm (Diabrotica undecimpunctata) were placed together with 2 pre-swollen maize corns into a dish, covered with the treated soil and moisted with 10 ml of water. Soil and eggs were placed in a greenhouse (23° C., 60% relative atmosphere humidity). After 2 weeks of storage, the effect of the compound on the eggs and any larvae hatched therefrom was determined (mortality). The following examples were active: 70, 60, 197, 204.

CC1CCN(CC#Cc2cccc(-c3ccc([N+](=O)[O-])cc3)c2)CC1 [Example 220]
active: root-systemic activity on the aphids (mortality) [1]

CC1CCN(CC#Cc2cc(C(F)(F)F)cc(Cl)n2)CC1.Cl [Example 1057]
active: mortality among the larvae [2] | larvicidal activity [3] | effect on the ticks (mortality) [4] | effect on the eggs and hatched larvae (mortality) [5] | effect on the eggs and hatched larvae (mortality) [6] | effect on the fleas (mortality) [7]

Cc1cc(C(F)(F)F)cc(C#CCN2CCC(C)CC2)n1 [Example 197]
active: effect on the larvae (mortality) [8] | effect on the larvae (mortality) [9] | mortality among the larvae [10] | larvicidal action [11] | mortality among the leafhopper larvae [12] | effect on the ticks (mortality) [4] | effect on the larvae (mortality) [13] | mortality among the larvae [14] | mortality among the larvae [15] | effect on the eggs and hatched larvae (mortality) [5] | mortality among the larvae [16] | effect on the eggs and hatched larvae (mortality) [6] | effect on the eggs and hatched larvae (mortality) [17] | effect on the fleas (mortality) [7]
